Results: patent US20220162537A1, “FLUID SYSTEM FOR PRODUCING EXTRACELLULAR VESICLES COMPRISING A THERAPEUTIC OR IMAGING AGENT AND METHOD THEREOF” (CENTRE NATIONAL DE LA RECHERCHE SCIENTIFIQUE, priority 2018, published 2022)

System: HT29 tumors
Experiment: HT29 tumor growth retardation after photodynamic therapy (Kaplan-Meier)
Type: in vivo, mice
Details: photodynamic therapy with laser activation
Description: FIG. 8 illustrates Kaplan-Meier diagrams of HT29 tumor growth retardation after treatment with free mTHPC; the liposomal formulation of mTHPC (mTHPC Liposome) and mTHPC vesicles with laser activation of the drug (photodynamic therapy), compared to the same groups without laser activation (control, dotted lines).
FIG. 8 illustrates Kaplan-Meier diagrams of tumor growth retardation HT29 after treatment with free mTHPC; the liposomal formulation of mTHPC and mTHPC-EVs with laser activation of the drug (photodynamic therapy, three-dimensional therapies), compared to the same groups without laser activation (control, dotted lines). The inventors have compared the therapeutic effect of EVs mTHPC, the liposomal formulation of mTHPC and free mTHPC in terms of tumor growth, 90 days after treatment. […] Thus, compared to the liposomes, the charged vesicles of active agents obtained according to the methods of the present invention can constitute a very advantageous alternative both of the point of view of the pharmacodynamics properties and the effectiveness of the treatment carried out. The liposomes are known for the vectorization of various biomolecules such as enzymes, hormones, antisense oligonucleotides, ribozymes, proteins or DNA peptides, cancer molecules (Farjadian et al 2018). […]

Q: For Oc1cccc(-c2c3nc(c(-c4cccc(O)c4)c4ccc([nH]4)c(-c4cccc(O)c4)c4nc(c(-c5cccc(O)c5)c5ccc2[nH]5)CC4)C=C3)c1 [mTHPC, meta-tetra (hydroxyphenyl) chlorin], which “percentage of tumors (growth 10 times higher criterion) at day 90” value is on record?
A: Its value is 20%.
